In patent publication US20240197709A1, “POTENTIATING THE TUMOR-SELECTIVE EFFECTS OF NQO1-BIOACTIVATABLE AGENT BY USE OF CMET INHIBITOR” (The Trustees of Indiana University, priority 2022, published 2024):

How the values were obtained:
[1] = β-lap monotherapy; cited from earlier work
[2] = test system: Capan2 shMET; test: long-term survival (DNA assay), Capan2 shSCR versus shMET; type: cell-based
Text: FIG. 1-1R. Graph showing relative long-term survival in isogenic Capan2 shSCR versus shMET cell lines using the DNA assay.
Dicoumarol (DIC) is a well-established NQO1 inhibitor (Asher, et al., Biochemistry 2006, 45(20), 6372-8; Motea, et al., Clin Cancer Res 2019, 25(8), 2601-2609; Huang, et al., Cancer Cell 2016, 30(6), 940-952).

[3] = test system: Capan2 PDAC shMET cells; test: transwell migration and invasion, Capan2 shSCR vs shMET; type: cell-based; conditions: β-lap 2 μM 2 h, versus shSCR control
Experimental: FIG. 4-1D. Representative images from in vitro transwell migration assay comparing Capan2 shSCR and Capan2 shMET treated with vehicle control or sub-lethal β-lap (2 μM, 2 h). Images were taken at 16 h post-treatment.
FIG. 4-1E. Bar graph illustrating the percentage of Capan2 shSCR vs shMET PDAC cell migration at 16 h post-treatment with vehicle or sub-lethal β-lap (2 μM, 2 h). Two-way ANOVA was used for statistical analyses; * p<0.05; **** p<0.0001.
FIG. 4-1F. Representative images from in vitro transwell invasion assay comparing Capan2 shSCR and Capan-2 shMET treated with vehicle control or sub-lethal β-lap (2 μM, 2 h). Images were taken at 16 h post-treatment.
FIG. 4-1G. Bar graph illustrating the percentage of Capan2 shSCR vs shMET PDAC cell invasion at 16 h post-treatment with vehicle or sub-lethal β-lap (2 μM, 2 h). Two-way ANOVA was used for statistical analyses; * p<0.05; **** p<0.0001.
(§1) Overexpression of cMET in many cancers, including NSCLC and PDAC, is known to enhance cancer cell mobility, migration, and invasion (Spina, et al., Biomedicines 2015, 3(1), 71-88). […]

[4] = test system: pY1234-cMET (activated cMET) in the nucleus, A549; test: Western blots of nuclear versus cytoplasmic fractions; conditions: A549, β-lap 3 μM and 6 μM for 2 h
Experimental: Images of Western blots of nuclear versus cytoplasmic fractions from A549 cells treated with vehicle (DMSO, 0.1%) control and indicated concentrations of β-lap±DIC (50 μM) for 2 h. Lamin B1 and tubulin were used as loading controls for nuclear and cytoplasmic fractions, respectively.
Bar graph depicting quantification of pY1234-cMET (activated cMET) in the nucleus at indicated treatment conditions.

[5] = HPBCD formulation; cited from earlier work
[6] = test system: MIAPaCa2 NQO1−/− PDAC cell line; test: long-term survival, MIAPaCa2 NQO1 knock out; type: cell-based; conditions: β-lap alone
Text: Graph showing relative long-term survival plot of isogenic MIAPaCa2 NQO1+/+ versus MIAPaCa2 NQO1−/−PDAC cell lines treated with varying concentrations of β-lap alone.

[7] = test system: A549 shMET; test: migration and invasion, A549 shSCR versus shMET; type: cell-based; conditions: β-lap 3 μM 2 h, p<0.001
Experimental: FIG. 4H. Representative images of A549 shSCR versus shMET migration at 16 h following treatments with DMSO-treated control and β-Lap (3 μM) for 2 h. Scale bars, 50 μm;
FIG. 4I. Bar graph showing quantification of cell migration expressed as a percent of control (vehicle). Quantitative data were shown as the mean±SEM. **** p<0.0001, ** p<0.01, *p<0.05, ns=not significant.
FIG. 4J. Representative images of A549 shSCR versus shMET invasion using a matrigel-coated transwell system at 16 h following treatments with DMSO-treated control and β-Lap (3 μM) for 2 h. Scale bars, 50 μm;
FIG. 4K. Bar graph showing quantification of cell invasion expressed as a percent of control (vehicle). Quantitative data were shown as the mean±SEM. **** p<0.0001, ** p<0.01, *p<0.05, ns=not significant.
FIG. 4-1B. Bar graph illustrating percentage wound closure at indicated time points in A549 shSCR versus shMET treated with vehicle control or non-lethal β-lap for 2 h. Two-way ANOVA was used for statistical analyses; * p<0.05.
as §1

[8] = test system: cellular hydrogen peroxide (H2O2) levels in A549 cells; test: ROS-Glo H2O2 Assay; type: cell-based; conditions: A549, β-lap 3 μM, within 15 min, further increased at two hours
Experimental: FIG. 2-1A. […] Growth media was then replaced with fresh media containing β-lap (3 μM) alone, criz alone (1 μM) or combination±DIC (50 μM) and collected at 15 and 120 min to measure H2O2 production using the ROS-Glo™ H2O2 Assay from Promega (Madison, WI). The assay was performed in three biological replicates.
Next, we sought to investigate the mechanistic role of cMET in promoting resistance to ROS-induced DNA lesions caused by the futile redox cycling of β-lap with NQO1. […] In response to H2O2 stimulation, cMET can translocate into the nucleus where it interacts with PARP1 for activation to enhance the repair of ROS-induced DNA damage. […] Next we performed PARP1 immunoprecipitation studies to determine whether it associates with activated cMET in the nucleus following treatment with β-lap at increasing doses.

[9] = test system: Vimentin protein expression in A549 shSCR; test: Western blot of Vimentin, A549 shSCR versus shMET; type: cell-based; conditions: sub-lethal β-lap 2 h, further reduced in shMET
Experimental: FIG. 4-1C. Western blot analysis of Vimentin protein expression in A549 shSCR versus shMET treated with vehicle control or non-lethal β-lap doses for 2 h.
Overexpression of cMET in many cancers, including NSCLC and PDAC, is known to enhance cancer cell mobility, migration, and invasion (Spina, et al., Biomedicines 2015, 3(1), 71-88). […] Thus, we investigated whether treatment with non-lethal β-lap in combination with inhibition of cMET activity (i.e., via pharmacological or genetic interventions) can target and mitigate cancer invasion or migration using Boyden chamber (Chen, Methods Mol Biol 2005, 294, 15-22; Eccles, et al., Biotechnol Annu Rev 2005, 11, 391-421) and wound-healing (Liang, et al., Nat Protoc 2007, 2(2), 329-33) assays. […] Likewise, we noted a decrease in the expression of a transcription factor that promotes invasion and migration, Twist (Khan et al., Tumour Biol 2013, 34(5), 2497-506), with the combination treatment relative to vehicle control (FIG. 4E, G). Addition of DIC to the combination treatment reverted Twist and E-cadherin protein expression to almost similar level as vehicle-treated control. shRNA mediated knockdown of cMET expression in A549 and Capan2 decreased their migratory and invasive phenotypes relative to their corresponding shSCR controls, which is consistent with the canonical role of cMET in invasive cancers. […]

For CC1(C)CCC2=C(O1)c1ccccc1C(=O)C2=O [β-lap, β-Lapachone], the “toxicity at high doses in clinical trials” value [1] is given as “methemoglobinemia and haemolysis”, the “sensitivity to β-lap after stable knockdown of cMET” value [2] is given as “enhanced Capan2 sensitivity” and the cell invasion [3] is given as “significantly reduced”. For the same compound, the cell migration [3] was “significantly reduced”, the “translocation of activated cMET (pY1234-cMET) into the nucleus” value [4] was “greatly enhanced” and the “maximum-tolerated dose (MTD)” value [5] was “about 25 mg/kg”. The “sensitivity after knocking out NQO1” value [6] was “more resistant”, the cell invasion [7] was “significantly reduces” and the cell migration [7] was “significantly reduces”. For the same compound, the “relative amount of cellular H2O2” value [8] was “significantly increased” and the Vimentin expression [9] was “decreased Vimentin expression”.
